Source: patent US8420693B2, “Dipyrrole compounds, compositions, and methods for treating cancer or viral diseases” (Gemin X Pharmaceuticals Canada Inc., priority 2004, dated 2013)
Counter-ions that a name gives are not always drawn.

Legend:
[1] = tested on: C33A human cervical cancer cells; assay: Growth of C33A cervical tumors in CB17 SCID/SCID mice; assay type: in vivo; conditions: for T/C value: day 42
Excerpt: (§1) As used herein, the term “T/C value” refers to the value obtained when: (a) the change from baseline in average tumor volume of treated mice is divided by the change from baseline in the average tumor volume of negative control mice; and (b) the numerical value obtained in step (a) is multiplied by 100.
The resultant mice are a model for a human having cervical cancer.
The C33A human cervical cancer cells were maintained in RPMI (Hyclone, Utah, USA) supplemented with 10% inactivated fetal bovine serum (Bio-Whittaker, MD, USA) and 1% penicillin-streptomycin-L-Glutamine (Gibco, N.Y., USA), under 5% CO2 at 37° C., and passaged twice a week. The cells were grown at a confluency lower than 70% and than collected with Trypsin (Bio-Whittaker, MD, USA). The cells were then centrifuged and washed twice using phosphate buffered saline solution (PBS) and resuspended in PBS at 2×10^6 cells per 100 μl. Viability was examined by staining with trypan blue (Gibco, N.Y., USA) and only flasks with cell viability greater than 95% were used for in vivo studies.
C33A cells were injected subcutaneously into the flank of female CB17 SCID/SCID mice. Each mouse was inoculated with a suspension of 2×10^6 tumors cells per 100 μl on day zero. There were three treatment groups of ten mice each: (a) a negative control group, (b) a group treated with Compound 22 MS and (c) a group treated with Compound 37 MS.
Treatments started on day twenty eight after C33A cells transplantation. […] The negative control group was treated with vehicle alone. The injection volume for Compound treated groups and the negative control group was 100 μl.
Observation continued for 51 days after initial tumor implantation.

[2] = tested on: human prostatic adenocarcinoma cancer PC3 cells; assay: Growth of PC3 prostate tumors in SCID mice; assay type: in vivo
Excerpt: as §1
The resultant mice are a model for a human having prostatic cancer.
The human prostatic adenocarcinoma cancer PC3 cells were purchased from the American Type Culture Collection (ATCC). These cells were confirmed to be free of mycoplasma infection. Cells were maintained in the Roswell Park Memorial Institute (RPMI), supplemented with 10% inactivated fetal bovine serum and 1% penicillin-streptomycin-L-Glutamine, under 5% carbon dioxide (CO2) at 37° C. For prostatic-tumor induction, cells were grown lower than 70% confluence in complete medium and then collected with trypsin (Bio Whittaker, Rockland, Me., USA). Cells were then centrifuged and washed 2 times in phosphate buffer solution (PBS) and resuspended in PBS at 1.5×10^6 cells/0.1 mL. PC3 cells were then transplanted subcutaneously into the right flank of SCID mice (Charles River Laboratories, Wilmington, Mass., USA), as a suspension of tumor cells (1.5×10^6 cells in 100 μL PBS), under a laminar airflow hood. Eleven (11) days later, the size of each tumor was measured. […] Relative tumor size and volume was calculated as follows: length (cm)×[width (cm)]^2/2. There were four treatment groups of ten mice each: (a) a negative control group, (b) a positive control group and (c) a group treated with 36.25 μMoles/Kg of Compound 17 Mesylate Salt (d) a group treated with 72.5 μMoles/Kg of Compound 17 Mesylate Salt.
Treatments started on day eleven after PC3 cells transplantation. […] The negative control group was treated with vehicle alone.
Observation continued for 32 days after initial tumor implantation.

[3] = tested on: H1299 human non-small cell lung cancer-cells; assay: Cancer cell viability by cellular ATP levels (ViaLight), H1299; assay type: cell-based; conditions: NCI-H1299, 72 h, 3 days of incubation, ATP levels relative to untreated control
Description: (§2) Selected cell lines included C33A cervical carcinoma cells and H1299 human non-small cell lung cancer-cells (American Type Culture Collection, Manassas, Va. USA), which were cultured in the media recommended by the American Type Culture Collection. The cells lines were plated in 96-well microtiter plates (PerkinElmer Life Sciences Inc, Boston, Mass., USA) at a confluency that allowed them to reach confluence after 4 days of growth. One day after plating, the cells were treated with various concentrations of Compounds. Stock solutions of the Compounds were prepared in dimethyl sulfoxide (Sigma-Aldrich Inc., St. Louis, Mo., USA), diluted in the recommended media and then added to the cells. The total dimethyl sulfoxide on the cells was 0.1%. After 3 days of incubation the ATP levels in the cells were quantified using a luminescent ViaLight detection system (Bio-Whittaker, MD, USA). The results were plotted relative to untreated control cells, which were set at a value of 100. The IC50s were determined using a best-fit sigmoidal dose response curve with variable slope.

[4] = tested on: C33A cervical carcinoma cells; assay: Cancer cell viability by cellular ATP levels (ViaLight), C33A; assay type: cell-based; conditions: Homo sapiens, C-33-A, 72 h, 3 days of incubation, ATP levels relative to untreated control
Description: as §2

[5] = 10 mg/kg iv once a day for five days
[6] = 2.6 mg/kg iv once a day for five days

IC50 [3] | IC50 [4] | Compound | other results
– | – | COC1=CC(c2ccc(N(C)C)cc2)=NC1=Cc1[nH]c(C)cc1C [Compound 22 MS, 4-(4-methoxy-5-((3,5-dimethyl-1H-pyrrol-2-yl)methylene)-5H-pyrrol-2-yl)-N,N-dimethylbenzenamine] | reduction in tumor growth compared to mice treated with vehicle only [1, 5]: statistically significant (p=0.0024) reduction in tumor growth; T/C value [1, 5]: 34%
– | – | COC1=CC(c2ccc(OC)c(OC)c2)=NC1=Cc1[nH]c(C)cc1C [Compound 17 Mesylate Salt, 2-((3-methoxy-5-(3,4-dimethoxyphenyl)-2H-pyrrol-2-ylidene)methyl)-3,5-dimethyl-1H-pyrrole] | reduction in tumor growth compared to mice treated with vehicle only ([2]; 36.25 μMoles/Kg iv once a day for five days): did not result in a statistical significant reduction in tumor growth; T/C value ([2]; 36.25 μMoles/Kg iv once a day for five days, day 29): 53%; T/C value ([2]; 36.25 μMoles/Kg iv once a day for five days, day 32): 52%; T/C value ([2]; 72.5 μMoles/Kg iv once a day for five days, day 29): 18%; T/C value ([2]; 72.5 μMoles/Kg iv once a day for five days, day 32): 22%; reduction in tumor growth compared to mice treated with vehicle only ([2]; 72.5 μMoles/Kg iv once a day for five days, days 29 and 32): statistically significant (p<0.01) reduction in tumor growth
20 µM | 20 µM | COC1=CC(c2cc(OC)ccc2OC)=NC1=Cc1[nH]c(C)cc1C [Compound 19, 2-((3-methoxy-5-(2,5-dimethoxyphenyl)-2H-pyrrol-2-ylidene)methyl)-3,5-dimethyl-1H-pyrrole] | –
– | – | COC1=CC(c2cnn(Cc3ccccc3)c2)=NC1=Cc1[nH]c(C)cc1C [Compound 37 MS, 1-benzyl-4-(4-methoxy-5-((3,5-dimethyl-1H-pyrrol-2-yl)methylene)-5H-pyrrol-2-yl)-1H-pyrazole] | reduction in tumor growth compared to mice treated with vehicle only [1, 6]: statistically significant (p<0.0001) reduction in tumor growth; T/C value [1, 6]: 31%
6.5 µM | 0.7 µM | COC1=CC(c2ccoc2)=NC1=Cc1[nH]c(C)cc1C [Compound 14, 2-((5-(furan-3-yl)-3-methoxy-2H-pyrrol-2-ylidene)methyl)-3,5-dimethyl-1H-pyrrole] | –
6.6 µM | 0.75 µM | COC1=CC(c2ccsc2)=NC1=Cc1[nH]c(C)cc1C [Compound 15, 2-((3-methoxy-5-(thiophen-3-yl)-2H-pyrrol-2-ylidene)methyl)-3,5-dimethyl-1H-pyrrole] | –
1.43 µM | 1.19 µM | COC1=CC(c2ccc(SC(C)C)cc2)=NC1=Cc1[nH]c(C)cc1C [Compound 36, 2-((5-(4-(isopropylthio)phenyl)-3-methoxy-2H-pyrrol-2-ylidene)methyl)-3,5-dimethyl-1H-pyrrole] | –
4 µM | 2 µM | COC1=CC(c2ccc(OC)c(OC)c2OC)=NC1=Cc1[nH]c(C)cc1C [Compound 18, 2-((3-methoxy-5-(2,3,4-trimethoxyphenyl)-2H-pyrrol-2-ylidene)methyl)-3,5-dimethyl-1H-pyrrole] | –
10 µM | 3 µM | COC1=CC(c2ccc(F)cc2F)=NC1=Cc1[nH]c(C)cc1C [Compound 3, 2-((5-(2,4-difluorophenyl)-3-methoxy-2H-pyrrol-2-ylidene)methyl)-3,5-dimethyl-1H-pyrrole] | –
0.42 µM | 0.29 µM | COC1=CC(c2ccc(N(C)C)cc2)=NC1=Cc1[nH]c(C)cc1C [Compound 22, 4-(4-methoxy-5-((3,5-dimethyl-1H-pyrrol-2-yl)methylene)-5H-pyrrol-2-yl)-N,N-dimethylbenzenamine] | –
1.06 µM | 0.503 µM | COC1=CC(c2ccc(OC)c(C)c2)=NC1=Cc1[nH]c(C)cc1C [Compound 24, 2-((3-methoxy-5-(4-methoxy-3-methylphenyl)-2H-pyrrol-2-ylidene)methyl)-3,5-dimethyl-1H-pyrrole] | –

Compound | IC50 [3] | IC50 [4] | other results
COC1=CC(c2ccc(F)nc2)=NC1=Cc1[nH]c(C)cc1C [Compound 39, 2-fluoro-5-(4-methoxy-5-((3,5-dimethyl-1H-pyrrol-2-yl)methylene)-5H-pyrrol-2-yl)pyridine] | 20 µM | 7.65 µM | –
COC1=CC(c2cccnc2F)=NC1=Cc1[nH]c(C)cc1C [Compound 40, 2-fluoro-3-(4-methoxy-5-((3,5-dimethyl-1H-pyrrol-2-yl)methylene)-5H-pyrrol-2-yl)pyridine] | 20 µM | 8.55 µM | –
